Measurements: patent EP1130016A1, “THIOCARBAMIC ACID DERIVATIVES” (HOKURIKU SEIYAKU CO., LTD., priority 1998, dated 2000)
Values after ≈ are worked out from the molar mass of the structure shown. Where two headings read alike, the source gives them in different places.

Key:
[1] = test system: B.subtilis ATCC 6633 HPR022; assay: Antibacterial activity (MIC), type strains; type: cell-based; conditions: Bacillus subtilis, ATCC6633; type strain B.subtilis ATCC 6633 HPR022; 10^6/ml of colony forming bacteria
Description: (§1) Antibacterial activities (minimum inhibitory concentration: MIC) were determined according to the standard method of the Japan Society of Chemotherapy [Chemotherapy, Vol. 29, p.76 (1981)] by using type strains and strains isolated from patients with infectious disease (including clinical isolates and atypical acid-fast bacteria), and applying 10^6/ml of colony forming bacteria. Linezolid was used as the reference compound [a compound described in Journal of Medicinal Chemistry, Vol. 39, p.673 (1996), hereinafter referred to as "reference compound"].

S.aureus MS353 HPC017 = assay: Antibacterial activity (MIC), type strains; type: cell-based; conditions: Staphylococcus aureus, MS353HPC017
Description: as §1

S.aureus Smith HPC023 = assay: Antibacterial activity (MIC), type strains; type: cell-based; conditions: Staphylococcus aureus
Description: as §1

MRSA HPC 1336 = assay: Antibacterial activity (MIC), clinical isolates; type: cell-based, Methicillin-resistant Staphylococcus aureus; conditions: Staphylococcus aureus
Description: as §1

MRSA HPC 432 = assay: Antibacterial activity (MIC), clinical isolates; type: cell-based, Methicillin-resistant Staphylococcus aureus; conditions: Staphylococcus aureus
Description: as §1

E.faecalis HPC 1321 = assay: Antibacterial activity (MIC), clinical isolates; type: cell-based; conditions: Enterococcus faecalis, HPC1321
Description: as §1

E.faecium HPC 1322 = assay: Antibacterial activity (MIC), clinical isolates; type: cell-based; conditions: Enterococcus faecium, HPC1322
Description: as §1

S.epidermidis HPC 1728 = assay: Antibacterial activity (MIC), clinical isolates; type: cell-based; conditions: Staphylococcus epidermidis, HPC1728
Description: as §1

M.avium 20092 = assay: Antibacterial activity (MIC), atypical acid-fast bacteria; type: cell-based; conditions: Mycobacterium avium, 10^6/ml of colony forming bacteria
Description: as §1

M.avium 20096 = assay: as above; type: cell-based; conditions: Mycobacterium avium, 10^6/ml of colony forming bacteria
Description: as §1

M.intracellulare 20067 = assay: as above; type: cell-based; conditions: Mycobacterium intracellulare, 10^6/ml of colony forming bacteria
Description: as §1

M.intracellulare 20073 = assay: as above; type: cell-based; conditions: Mycobacterium intracellulare, 10^6/ml of colony forming bacteria
Description: as §1

[2] = type strain S.aureus MS353 HPC017, 10^6/ml of colony forming bacteria, read-out: MIC
[3] = type strain S.aureus Smith HPC023, 10^6/ml of colony forming bacteria, read-out: MIC
[4] = clinical isolate MRSA HPC 1336, 10^6/ml of colony forming bacteria, read-out: MIC
[5] = clinical isolate MRSA HPC 432, 10^6/ml of colony forming bacteria, read-out: MIC
[6] = clinical isolate E.faecalis HPC 1321, 10^6/ml of colony forming bacteria, read-out: MIC
[7] = clinical isolate E.faecium HPC 1322, 10^6/ml of colony forming bacteria, read-out: MIC
[8] = clinical isolate S.epidermidis HPC 1728, 10^6/ml of colony forming bacteria, read-out: MIC

Row | MIC [1] [µg/mL] | MIC (S.aureus MS353 HPC017; [2]) [µg/mL] | MIC (S.aureus Smith HPC023; [3]) [µg/mL] | MIC (MRSA HPC 1336; [4]) [µg/mL] | MIC (MRSA HPC 432; [5]) [µg/mL] | MIC (E.faecalis HPC 1321; [6]) [µg/mL] | MIC (E.faecium HPC 1322; [7]) [µg/mL] | MIC (S.epidermidis HPC 1728; [8]) [µg/mL] | MIC (M.avium 20092) [µg/mL] | MIC (M.avium 20096) [µg/mL] | MIC (M.intracellulare 20067) [µg/mL] | MIC (M.intracellulare 20073) [µg/mL] | SMILES | MIC (S.aureus MS353 HPC017) [µg/mL] | MIC (S.aureus Smith HPC023) [µg/mL] | MIC (MRSA HPC 1336; MRSA) [µg/mL] | MIC (MRSA HPC 432; MRSA) [µg/mL] | MIC (E.faecalis HPC 1321) [µg/mL] | MIC (E.faecium HPC 1322) [µg/mL] | MIC (S.epidermidis HPC 1728) [µg/mL]
1 | 0.39 (≈ 0.971 µM) | 0.78 (≈ 1.94 µM) | 0.78 (≈ 1.94 µM) | 0.78 (≈ 1.94 µM) | 0.78 (≈ 1.94 µM) | 0.39 (≈ 0.971 µM) | 0.39 (≈ 0.971 µM) | 0.78 (≈ 1.94 µM) | 3.13 (≈ 7.8 µM) | 3.13 (≈ 7.8 µM) | 6.25 (≈ 15.6 µM) | 6.25 (≈ 15.6 µM) | COC(=S)NC[C@H]1CN(c2ccc(N3CC[S+]([O-])CC3)c(F)c2)C(=O)O1 [Example 2] | – | – | – | – | – | – | –
2 | 0.39 (≈ 1.1 µM) | 0.39 (≈ 1.1 µM) | 0.39 (≈ 1.1 µM) | 0.39 (≈ 1.1 µM) | 0.39 (≈ 1.1 µM) | 0.39 (≈ 1.1 µM) | 0.39 (≈ 1.1 µM) | 0.39 (≈ 1.1 µM) | 1.56 (≈ 4.41 µM) | 1.56 (≈ 4.41 µM) | 1.56 (≈ 4.41 µM) | 0.78 (≈ 2.21 µM) | COC(=S)NC[C@H]1CN(c2ccc(N3CCCC3)c(F)c2)C(=O)O1 [Example 4] | – | – | – | – | – | – | –
3 | 0.39 (≈ 0.934 µM) | 0.78 (≈ 1.87 µM) | 0.78 (≈ 1.87 µM) | 0.78 (≈ 1.87 µM) | 0.78 (≈ 1.87 µM) | 0.39 (≈ 0.934 µM) | 0.39 (≈ 0.934 µM) | 0.39 (≈ 0.934 µM) | 3.13 (≈ 7.5 µM) | 3.13 (≈ 7.5 µM) | 3.13 (≈ 7.5 µM) | 3.13 (≈ 7.5 µM) | COC(=S)NC[C@H]1CN(c2ccc(N3CCS(=O)(=O)CC3)c(F)c2)C(=O)O1 [Example 3] | – | – | – | – | – | – | –

Continued, molecule first:

Row | SMILES | MIC [1] [µg/mL] | MIC (S.aureus MS353 HPC017; [2]) [µg/mL] | MIC (S.aureus Smith HPC023; [3]) [µg/mL] | MIC (MRSA HPC 1336; [4]) [µg/mL] | MIC (MRSA HPC 432; [5]) [µg/mL] | MIC (E.faecalis HPC 1321; [6]) [µg/mL] | MIC (E.faecium HPC 1322; [7]) [µg/mL] | MIC (S.epidermidis HPC 1728; [8]) [µg/mL] | MIC (M.avium 20092) [µg/mL] | MIC (M.avium 20096) [µg/mL] | MIC (M.intracellulare 20067) [µg/mL] | MIC (M.intracellulare 20073) [µg/mL] | MIC (S.aureus MS353 HPC017) [µg/mL] | MIC (S.aureus Smith HPC023) [µg/mL] | MIC (MRSA HPC 1336; MRSA) [µg/mL] | MIC (MRSA HPC 432; MRSA) [µg/mL] | MIC (E.faecalis HPC 1321) [µg/mL] | MIC (E.faecium HPC 1322) [µg/mL] | MIC (S.epidermidis HPC 1728) [µg/mL]
4 | COC(=S)NC[C@H]1CN(c2ccc(N3CCSCC3)c(F)c2)C(=O)O1 [Example 1, O-Methyl (S)-N-[3-[3-fluoro-4-(thiomorpholin-4-yl)phenyl]-2-oxooxazolidin-5-yl]methylthiocarbamate] | 0.39 (≈ 1.01 µM) | 0.78 (≈ 2.02 µM) | 1.56 (≈ 4.05 µM) | 0.78 (≈ 2.02 µM) | 0.78 (≈ 2.02 µM) | 0.78 (≈ 2.02 µM) | 0.78 (≈ 2.02 µM) | 0.78 (≈ 2.02 µM) | 0.39 (≈ 1.01 µM) | 0.39 (≈ 1.01 µM) | 0.39 (≈ 1.01 µM) | 0.39 (≈ 1.01 µM) | – | – | – | – | – | – | –
5 | CC(=O)NC[C@H]1CN(c2ccc(N3CCOCC3)c(F)c2)C(=O)O1 [Reference compound, Linezolid, reference compound] | 0.78 (≈ 2.31 µM) | – | – | – | – | – | – | – | 25 (≈ 74.1 µM) | 50 (≈ 148 µM) | 12.5 (≈ 37.1 µM) | 6.25 (≈ 18.5 µM) | 3.13 (≈ 9.28 µM) | 3.13 (≈ 9.28 µM) | 3.13 (≈ 9.28 µM) | 3.13 (≈ 9.28 µM) | 1.56 (≈ 4.62 µM) | 1.56 (≈ 4.62 µM) | 3.13 (≈ 9.28 µM)
